Laboratory results as given in paper PMC9974481, “Structure of SpoT reveals evolutionary tuning of catalysis via conformational constraint” (Nature Chemical Biology, 2022).

How the values were obtained:
[1] = target: T1, SpoTAb (full-length A. baumannii SpoT) (Acinetobacter baumannii, UniProt A0A0D5YCY1); assay: 3H-ppGpp hydrolysis, TLC and scintillation counting; type: biochemical; conditions: 1 mM MnCl2, 5 mM Mg2+, HEPES:Polymix pH 7.5, 37 °C, 10-600 μM substrate; labelled compound
T1 construct: gene ABUW_0309; full-length, domains HD, pseudo-SYNTH, Core, TGS, HEL, ZFD, RRM; pET28b His-TEV tag cleaved, E. coli BL21(DE3); monomer, theoretical 80 kDa; locus tag belongs to AB5075, expression gene amplified from AB19606; PDB entries not assigned in text (one is the metal-free NTD)

[2] = target: T1, SpoTAb (full-length A. baumannii SpoT); assay: X-ray crystallography, […] Å; type: binding; conditions: crystal soaked with 20 mM ppGpp at 4 °C; Mn2+ in hydrolase active site; PDB entry is 7QPR or 7QPS, not assigned in text

Nc1nc2c(ncn2[C@@H]2O[C@H](COP(=O)(O)OP(=O)(O)O)[C@@H](OP(=O)(O)OP(=O)(O)O)[C@H]2O)c(=O)[nH]1 [ppGpp]
KM [1]: SpoTAb Michaelis constant (KM) and maximum reaction velocity (Vmax) of ^3H-ppGpp hydrolysis were determined
X-ray crystallography, 2.5 Å [2]: X-ray structure of full-length catalytically active SpoTAb bound to ppGpp
